Patent US5279956A, “Activated protein C polypeptides and anti-peptide antibodies, diagnostic methods and systems for inhibiting activated protein C” (The Scripps Research Institute, priority 1991, dated 1994)
No end group written: not given here.

What was measured:
APC [1] = target: T1, APC (Homo sapiens, UniProt P04070); assay: APC anticoagulant activity, APTT and Xa-1-stage coagulation assays (mean or both); assay type: biochemical; conditions: measured at 36 μM peptide
T1 construct: begins at amino acid residue position 158 and ends at 419; The light chain is 155 amino acid residues in length; tissue Factor IX concentrate from Immuno AG, Vienna; thrombin from Enzyme Research Laboratories
T1 sequence (P04070 212-461): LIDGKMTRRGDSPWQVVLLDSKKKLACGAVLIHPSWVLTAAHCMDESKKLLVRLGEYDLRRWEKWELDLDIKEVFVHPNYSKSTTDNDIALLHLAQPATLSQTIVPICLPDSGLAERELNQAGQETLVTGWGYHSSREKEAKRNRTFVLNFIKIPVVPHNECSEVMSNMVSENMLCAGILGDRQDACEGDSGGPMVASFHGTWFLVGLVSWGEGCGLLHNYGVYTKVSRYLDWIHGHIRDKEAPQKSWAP
T1 sequence (P04070 43-197): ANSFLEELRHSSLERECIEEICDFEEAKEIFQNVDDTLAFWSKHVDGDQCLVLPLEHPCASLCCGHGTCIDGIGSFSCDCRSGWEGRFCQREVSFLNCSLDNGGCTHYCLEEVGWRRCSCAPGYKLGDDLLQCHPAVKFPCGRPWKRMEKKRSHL
Protocol: The effect of the synthetic peptides on APC anticoagulant activity were determined using the APTT assay in the presence of either normal citrate anticoagulated plasma (NHP) or protein S depleted plasma (PSDP). The assays were performed essentially as described. See Marlar et al., Blood, 59:1067-1072 […]; Suzuki et al., J. Biol. Chem., 258:163-168 (1983); Gruber et al., Blood, 73:639-642 (1989); Ohlin et al., Biochem., 29:644-651 (1990). NHP was purchased from George King Bio-Medical, Inc. (Overland Park, Kans.). PSDP was prepared from a normal human citrate-anticoagulated plasma pool from ten healthy donors. Protein S was immunodepleted from the NHP by immunoaffinity chromatography of NHP over an anti-protein S antibody column to form PSDP. The anti-protein S antibody column was prepared by coupling 100 mg of a monoclonal, high-affinity, calcium-independent anti-PS antibody, designated S7, to 30 ml of CNBr-activated Sepharose 4B (Pharmacia) as described in Example 2c1).
For the APTT assay, APC was prepared as described in Example 2c2). […] The concentration of the APC used in the assay was initially optimized with respect to the sensitivity of the assay towards APC-induced prolongation of clotting time compared to clotting time without APC.
Once the optimal concentration of APC was determined, peptides from Table 2 were then separately admixed for a final concentration of 500 μM with 10 nM APC in 100 μl of TBS-BSA at pH 7.4 to form peptide-APC admixtures. The resulting admixtures were maintained for seven minutes at 37° C. Separate aliquots of peptides maintained under the same conditions in the absence of APC served as controls for the inhibitory effect of synthetic peptides on APC anticoagulant activity. After the maintenance period, 100 μl of NHP and 100 μl APTT-reagent Thrombosil (Ortho Diagnostics, Raritan, N.J.) were admixed into each peptide admixture and maintained for 200 seconds at 37° C. to form a pre-coagulation admixture. In some experiments, PSDP was used in the place of NHP to determine the effect of Protein S on the assay system. Coagulation was then initiated by the admixture of 100 μl of 30 mM CaCl2 in TBS prewarmed to 37° C. to each of the pre-coagulation admixtures. The time for clot formation was measured by an Electra 700 Automatic Coagulation Timer (Medical Laboratory Automation, Inc., Mount Vernon, N.Y.). Each peptide's effect was determined in duplicate.
The synthetic peptides listed in Table 4 are presented in the same order as listed in Table 2, i.e., are reproduced from Table 2. […] For peptides at a concentration of 500 μM that inhibited at least 50% of APC anticoagulant activity, analysis of dose-response was subsequently conducted. The column in Table 4 labeled "Inhibition of APC" represents the inhibition of APC anticoagulant activity measured with 500 μM peptide.
For testing the inhibition of the synthetic peptides on APC activity described above, Xa-1-stage coagulation assays were also performed as described. See Seegers et al., Thrombosis Res., 13:233-243 (1978); Marlar et al., supra; and Walker et al., J. Biol. Chem. 265:1484-1489 (1990).

[2] = Solubility of peptide in buffer solutions; assay type: physicochemical; conditions: concentrations higher than 36 μM
Protocol: Purified peptides were separately resuspended in distilled water to form a dissolved peptide solution at a final concentration of 2.5 mM. Subsequently, […] containing 0.05M Tris hydroxymethyl aminomethanehydrochloride (Tris-HCl) at pH 7.4 (TBS-Az) 0.1M sodium chloride (NaCl), 0.02% sodium azide (NaN3). The pH of the solution was checked, and if necessary, adjusted to pH 7.4 with titrated amounts of 1M Tris-base. For peptides that appeared to be not completely soluble at 2.5 mM in TBS-Az, the partially dissolved peptide suspensions separately were centrifuged at 13,000×g to pellet the insoluble material. The molar concentrations in the resultant individual supernatants were estimated from the absorbance at 280 nm and 257 nm, respectively, for peptide solutions containing aromatic amino acids using a molar extinction coefficient of 5,600 M^-1 cm^-1 for tryptophan and 1,400 M^-1 cm^-1 for tyrosine at 280 nm, using a molar extinction coefficient of 200 M^-1 cm^-1 for phenylalanine at 257 nm. Peptides without aromatic amino acids and poor solubility in aqueous solutions were not evaluated in this invention.

APC [3] = target: T1, APC; assay: Inhibition of APC by recombinant mutant (Arg358)-α1-antitrypsin, time course; assay type: biochemical; conditions: 18 nM APC and 100 nM α1-AT
Protocol: Since the number of amino acid residues involved in protease-protease inhibitor complexes is likely to be higher than the number of residues of APC involved in the cleavage of a small chromogenic substrate such as S-2366, the effect of peptide-(390-404) and peptide-(317-331) on the time course of inhibition of APC by a larger pseudosubstrate, recombinant mutant (Arg^358)-α1 -antitrypsin (α1 -AT) was evaluated. […] Heeb et al., J. Biol. Chem. 265:2365-2369 (1990).
Kinetic studies of inhibition of APC were performed with the higher affinity mutant α1 -AT pseudo-substrate. […] The change in absorbance was measured over time as described in the amidolytic assay. […]
Since the number of amino acid residues involved in protease-protease inhibitor complexes is likely to be higher than the number of residues of APC involved in the cleavage of a small chromogenic substrate such as S-2366, the effect of anti-(390-404) antibody on the time course of inhibition of APC by a larger pseudo-substrate, such as recombinant mutant (Arg^358)-α1 -AT was evaluated. […] The change in absorbance was measured over time as described in the amidolytic assay. […]

APC [4] = target: T1, APC; conditions: Heeb et al. 1990; cited from earlier work

| Substance | inhibition at 36 µM (APC [1]) [%] | solubility in buffer solutions [2] | calculated half-life for APC (APC [3]) [min] | increase in the association rate for APC by substitution of Met358 by Arg (APC [4]) |
| --- | --- | --- | --- | --- |
| YGVYTAVSRYLDWIH-NH2 [peptide-K395A-(390-404), YGVYTAVSRYLDWIH] | 23 | limitations of solubility in buffer solutions |  |  |
| recombinant (Arg^358)α1 -AT: recombinant mutant α1-antitrypsin with Met358 substituted by Arg, pseudosubstrate inhibitor of APC (Transgene) |  |  | 2 | over 4400 fold |
